The nature of data set [1]: Bioavailability in squirrel monkey (dose 5 mg/kg). The data set is classed as ADME, organism-based, Saimiri sciureus. The settings on record: in vivo.
The nature of data set [2]: Clearance was estimated in two squirrel monkeys after iv administration at 5 mg/kg. The data set is classed as ADME, organism-based. Details: dose 5 mg/kg, route intravenous. The settings on record: in vivo.
Data set [3] has as its target Cysteinyl leukotriene receptor 1 (Cavia porcellus). The experiment in a line: Inhibition of binding of [3H]LTD4 to guinea pig lung membrane.
For data set [4] the target is unchanged. Briefly: Inhibition of binding of [3H]LTD4 to guinea pig lung membrane supplemented with 0.05% human serum albumin(HSA).
The target of data set [5] is T1, Cysteinyl leukotriene receptor 1 (Homo sapiens, UniProt Q9Y271).
T1 sequence (Q9Y271 whole entry): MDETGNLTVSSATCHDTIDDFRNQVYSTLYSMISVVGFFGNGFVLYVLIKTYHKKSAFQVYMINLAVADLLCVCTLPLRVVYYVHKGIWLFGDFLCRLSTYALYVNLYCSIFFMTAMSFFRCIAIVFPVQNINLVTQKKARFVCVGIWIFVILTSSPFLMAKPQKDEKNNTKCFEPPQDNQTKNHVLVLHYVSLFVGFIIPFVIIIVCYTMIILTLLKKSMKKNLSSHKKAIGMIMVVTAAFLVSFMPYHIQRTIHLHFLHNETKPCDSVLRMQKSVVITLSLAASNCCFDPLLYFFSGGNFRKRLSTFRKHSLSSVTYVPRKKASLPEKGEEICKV
The experiment in a line: Inhibition of binding of [ H]-LTD4 to DMSO differentiated U937 cell membranes. Details: species or system U-937.

The nature of data set [6]: Terminal half life of the compound. The data set is classed as ADME.
A short description of data set [7]: Compound was tested on PMN membranes using LTD4 binding assays. The data set is classed as functional, Homo sapiens.
Data set [8] in a line: Compound was tested on dU937 cell membranes using LTC4 binding assays. It counts as functional, Homo sapiens.

SMILES strings stand for the structures. A value given as a limit tells only on which side of the number the result lay.

As to `O=C(O)CC1(CS[C@H](CCc2ccc(C(F)(F)F)cc2)c2cccc(/C=C/c3ccc4sc(Cl)c(Cl)c4n3)c2)CC1`, the bioavailability in data set [1] worked out at 4%. Moreover, the clearance in data set [2] was 1.4 mL/min/kg. In addition, the 50% inhibitory concentration (IC50) worked out at 3.84 nM in data set [3], 1.43 nM in data set [4] and 8.67 nM in data set [5].

`O=C(O)CC1(CS[C@H](CCc2ccc(C3(O)CCC3)cc2)c2cccc(/C=C/c3ccc4sc(Cl)c(Cl)c4n3)c2)CC1` yielded a bioavailability in data set [1] of 15%. In data set [6], this compound had a half-life of 2 h. Moreover, the clearance in data set [2] was 4.7 mL/min/kg. The IC50 in data set [3] amounted to 0.58 nM; in data set [4] it was 0.29 nM; in data set [5], 0.65 nM.

The compound `O=C(O)CC1(CS[C@H](CCc2ccccc2C(O)(C(F)(F)F)C(F)(F)F)c2cccc(/C=C/c3ccc4sc(Cl)c(Cl)c4n3)c2)CC1` came in with a bioavailability in data set [1] of 2%. In addition, the half-life in data set [6] is 11 h. For the same compound, in data set [2], the clearance was 0.9 mL/min/kg. Moreover, the values for the IC50 in data set [3], in data set [4] and in data set [5] were 4.12 nM, 1.21 nM and 6.42 nM, respectively.

Regarding `CC(C)(O)c1ccccc1CC[C@@H](SCC1(CC(=O)O)CC1)c1cccc(COc2ccc3sc(Cl)c(Cl)c3n2)c1`, the 50% inhibitory concentration (IC50) in data set [3], in data set [4] and in data set [5] was above 150 nM throughout.

With `CC(C)(O)c1ccccc1CC[C@@H](SCC1(CC(=O)O)CC1)c1cccc(OCc2ccc3sc(Cl)c(Cl)c3n2)c1`, the IC50 came out at 0.42 nM in data set [3], 2.2 nM in data set [4] and 2.01 nM in data set [5].

In data set [1], `O=C(O)CC1(CS[C@H](CCc2cccc(C3(O)CCC3)c2)c2cccc(/C=C/c3ccc4sc(Cl)c(Cl)c4n3)c2)CC1` showed a bioavailability of 13%. The clearance in data set [2] is 2.6 mL/min/kg. Moreover, the IC50 was found to be 0.44 nM in data set [3], 0.24 nM in data set [4] and 0.47 nM in data set [5].

Take `CC(C)(O)c1ccc(CC[C@@H](SCC2(CC(=O)O)CC2)c2cccc(/C=C/c3ccc4sc(Cl)c(Cl)c4n3)c2)cc1`: the bioavailability in data set [1] amounted to 35%. In data set [2], the clearance was 6.6 mL/min/kg. Moreover, the IC50 in data set [3] stood at 0.56 nM; in data set [4] it was 0.2 nM; in data set [5], 0.38 nM.

`O=C(O)CC1(CS[C@H](CCc2ccc(Br)cc2)c2cccc(/C=C/c3ccc4sc(Cl)c(Cl)c4n3)c2)CC1` showed a bioavailability in data set [1] of 3%. This compound gave a half-life in data set [6] of 5.1 h. Besides, in data set [2], the clearance was 1.6 mL/min/kg. The IC50 was found to be 1.95 nM in data set [3], 1.03 nM in data set [4] and 4.7 nM in data set [5].

Turning to `O=C(O)CC1(CS[C@H](CCc2ccc(F)cc2)c2cccc(/C=C/c3ccc4sc(Cl)c(Cl)c4n3)c2)CC1`, in data set [1], the bioavailability amounted to 5%. In data set [2], the clearance was 1.8 mL/min/kg. Besides, the IC50 in data set [3] turned out to be 1.09 nM; in data set [4], 0.65 nM; in data set [5], 2.16 nM.

For the compound `CC(C)(O)c1ccccc1CC[C@@H](SCC1(CC(=O)O)CC1)c1cccc(/C=C/c2ccc3sccc3n2)c1`, the values for the 50% inhibitory concentration (IC50) in data set [3], in data set [4] and in data set [5] were 1.31 nM, 20.4 nM and 8.49 nM, respectively.

As to `O=C(O)CC1(CS[C@H](CCc2ccccc2Br)c2cccc(/C=C/c3ccc4sc(Cl)c(Cl)c4n3)c2)CC1`, in data set [1], the bioavailability was determined as 3%. Besides, the half-life in data set [6] is 8.8 h. Besides, in data set [2], the clearance is 0.46 mL/min/kg. In addition, the results for the IC50 in data set [3], in data set [4] and in data set [5] were 2.6 nM, 1.93 nM and 2.43 nM, respectively.

Take `CC(C)(O)c1ccccc1CC[C@@H](SCC1(CC(=O)O)CC1)c1cccc(/C=C/c2ccc3sc(Cl)cc3n2)c1`: the bioavailability in data set [1] is 31%. In data set [2], the clearance was 1.2 mL/min/kg.

In data set [1], `O=C(O)CC1(CS[C@H](CCc2ccccc2)c2cccc(/C=C/c3ccc4sc(Cl)c(Cl)c4n3)c2)CC1` gave a bioavailability of 13%. In addition, the half-life in data set [6] is 4 h. In data set [2], the clearance is 1.8 mL/min/kg. For the same compound, the IC50 came to 0.34 nM in data set [3], 0.37 nM in data set [4] and 1.63 nM in data set [5].

On to `CC(C)(O)c1ccccc1CC[C@@H](SCC1(CC(=O)O)CC1)c1cccc(/C=C/c2ccc3scc(Cl)c3n2)c1`, for which the bioavailability in data set [1] came to 13%. Also, the clearance in data set [2] was 0.39 mL/min/kg. Moreover, the half-maximal inhibitory concentration (IC50) in data set [3] was found to be 0.54 nM; in data set [4] it was 1.58 nM; in data set [5] it was 1.91 nM.

For `O=C(O)CC1(CS[C@H](CCc2ccccc2CO)c2cccc(/C=C/c3ccc4sc(Cl)c(Cl)c4n3)c2)CC1`, the clearance in data set [2] is 3.5 mL/min/kg. In addition, the IC50 was determined as 0.48 nM in data set [3], 0.48 nM in data set [4] and 0.72 nM in data set [5].

In data set [1], `O=C(O)CC1(CS[C@H](CCc2ccccc2C2(O)CCC2)c2cccc(/C=C/c3ccc4sc(Cl)c(Cl)c4n3)c2)CC1` showed a bioavailability of 22%. For the same compound, the clearance in data set [2] is 1 mL/min/kg. For the same compound, the figures for the IC50 in data set [3], in data set [4] and in data set [5] were 0.74 nM, 0.34 nM and 1.05 nM, respectively.

`O=C(O)CC1(CS[C@H](CCc2ccccc2C(F)(F)F)c2cccc(/C=C/c3ccc4sc(Cl)c(Cl)c4n3)c2)CC1` showed a bioavailability in data set [1] of 1%. The half-life in data set [6] is 6.1 h. Also, the clearance in data set [2] was 0.4 mL/min/kg.

For the compound `CC(C)(O)c1ccccc1CC[C@@H](SCC1(CC(=O)O)CC1)c1cccc(/C=C/c2ccc3sc(F)c(F)c3n2)c1`, the bioavailability in data set [1] worked out at 25%. The compound also gave a half-life in data set [6] of 2.5 h. In data set [2], the clearance was 1.61 mL/min/kg.

Consider `CC(C)(O)c1ccccc1CC[C@@H](SCC1(CC(=O)O)CC1)c1cccc(C2CC2c2ccc3sc(Cl)c(Cl)c3n2)c1` (some centres not stated), for which the half-maximal inhibitory concentration (IC50) in data set [3] was 10.9 nM; in data set [4] it was 9.12 nM; in data set [5], 15.7 nM.

As to `CC(C)(O)c1ccccc1CC[C@@H](SCC1(CC(=O)O)CC1)c1cccc(/C=C/c2ccc3sc(Cl)c(Cl)c3n2)c1`, the IC50 was above 3000 nM in data set [7]; above 46000 nM in data set [8]; 0.89 nM in data set [3]; 0.34 nM in data set [4]; 0.55 nM in data set [5]. For the same compound, the bioavailability in data set [1] was 29%. Moreover, the half-life in data set [6] is 4.2 h. In addition, the clearance in data set [2] is 0.57 mL/min/kg.

The values above are taken from ChEMBL document CHEMBL1128064, “Discovery of L-740,515, a potent thienopyridine cysLT1 receptor (LTD4 receptor) antagonist” (Bioorg Med Chem Lett, 1995).
